Laboratory results published in paper PMC4305006 (Chemistry & biology, 2014).
≈ marks a conversion by molar mass, not a printed value.

How the values were obtained:
Type in all cases: cell-based, Mycobacterium tuberculosis
[1] = tested on: Mtb BioA under-expression strain (BioA-UE); settings: 90% inhibition, biotin-free Sauton's medium, 14 days
[2] = tested on: Mtb H37Rv without supplemental biotin; settings: 90% inhibition, 14 days
[3] = tested on: Mtb H37Rv with 1 μM supplemental biotin

## C=C(CCC(=O)O)c1nc2ccccc2s1 [Compound 13, 4-(benzothiazol-2-yl)pentenoic acid]
[1]
  MIC90 BioA-UE: 0.7 µM (≈ 0.163 µg/mL)
[2]
  MIC90 WT -biotin: 2.5 µM (≈ 0.583 µg/mL)
[3]
  shift of MIC upon addition of biotin: approximately 3 fold
[3]; 90% inhibition, Mtb H37Rv with 1 μM supplemental biotin, 14 days
  MIC90 WT+biotin: 8.7 µM (≈ 2.03 µg/mL)
